Drawing on US12215100B2, “Anticancer compounds” (Pharma Mar, S.A., priority 2018, dated 2025), this text covers IC50 and GI50 for 23 molecules.

Test [1] deals with SNU-638. The note with it: gastric cancer cell line; WO2002066046; cited from earlier work.
In test [2] the test system is SNU-216. As to conditions: gastric cancer cell line; WO2002066046; cited from earlier work.
The subject of test [3] is AGS. As to conditions: gastric cancer cell line; WO2002066046; cited from earlier work.
Test [4] concerns HepG2. The note with it: liver cancer cell line; WO2002066046; cited from earlier work.
The subject of test [5] is Hep3B. As to conditions: liver cancer cell line; WO2002066046; cited from earlier work.
The subject of test [6] is SK-HEP-1. The note with it: liver cancer cell line; WO2002066046; cited from earlier work.
The test system of test [7] is A549. In words: SRB colorimetric cytotoxicity assay, A549. The format is cell-based, human. The note with it: Homo sapiens, lung carcinoma (NSCLC). In outline:
(§1)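 Human cancer cells (5×10^3/well; DMEM or RPMI for PSN-1, 10% FBS) attached overnight, then treated 72 h; time-zero plate fixed. Growth measured by SRB staining after glutaraldehyde fixation, absorbance 490 nm. GI50, TGI and LC50 interpolated via NCI algorithm from 4-parameter logistic fits of triplicates.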

In test [8] the test system is HT29. In words: SRB colorimetric cytotoxicity assay, HT29. Format: cell-based, human. The note with it: Homo sapiens, colorectal adenocarcinoma. In outline:
as §1

Test [9] deals with MDA-MB-231. The test can be described thus: SRB colorimetric cytotoxicity assay, MDA-MB-231. The format is cell-based, human. As to conditions: Homo sapiens, breast adenocarcinoma. In outline:
as §1

Test [10] has as its system PSN-1. The test can be described thus: SRB colorimetric cytotoxicity assay, PSN-1. The format is cell-based, human. The note with it: Homo sapiens, pancreatic adenocarcinoma. The procedure, abridged:
as §1

The mark [11] stands for this setting: HT-29, 72 h, 72 hours treatment.
Setting [12] is: MDA-MB-231, 72 h, 72 hours treatment.

Regarding `COC1=CC(=O)N(C(=O)[C@H]2CSC([C@H](CO)NC(=O)c3csc(/C=N/O)n3)=N2)C1` [althiomycin], the IC50 (as a rule, the concentration at which inhibition is half-maximal) in test [1] was 770 nM; in test [2] it was 770 nM; in test [3], 850 nM; in test [4], 1430 nM; in [5] it was 880 nM; in test [6], 810 nM.

With `CCC[C@@H](NC(=O)[C@@H]1CSC(/C(C)=N/O)=N1)c1cc(OCC2CC2)cc(=O)o1` [Compound 178], the GI50 (usually the concentration that inhibits growth by half) in test [7] (A549, 72 h, 72 hours treatment) was determined as 41.7 nM; in [8] (setting [11]) it was 76.1 nM; in test [9] (setting [12]), 49.1 nM; in [10] (PSN1, 72 h, 72 hours treatment), 36.8 nM.

Consider `COc1cc([C@@H](CCC(F)(F)F)NC(=O)[C@]2(C)CSC(/C(C)=N\O)=N2)oc(=O)c1` [Compound 140a], for which the GI50 in [7] (A549, 72 h, 72 hours treatment) came to 2530 nM; in test [8] (setting [11]), 1520 nM; in test [9] (setting [12]), 2270 nM; in test [10] (PSN1, 72 h, 72 hours treatment) it was 2760 nM.

Consider `CCC[C@@H](NC(=O)[C@]1(C)CSC(C(C)(OCC)OCC)=N1)c1cc(OCC)cc(=O)o1` [Compound 46], for which the GI50 in [7] (A549, 72 h, 72 hours treatment) was found to be 2420 nM; in test [8] (setting [11]), 2180 nM; in test [9] (setting [12]) it was 1520 nM; in test [10] (PSN1, 72 h, 72 hours treatment) it was 4620 nM.

With `CCC[C@@H](NC(=O)[C@]1(C)CSC(/C(C)=N/O)=N1)c1cc(OCC)cc(=O)o1` [Compound 70], the GI50 was 14.4 nM in test [7] (A549, 72 h, 72 hours treatment); 14.9 nM in [8] (setting [11]); 23.8 nM in test [9] (setting [12]); 14.9 nM in test [10] (PSN1, 72 h, 72 hours treatment).

As to `CCC[C@@H](NC(=O)[C@]1(C)CSC(/C(C)=N/N)=N1)c1cc(OC)cc(=O)o1` [Compound 99], the GI50 in test [7] (A549, 72 h, 72 hours treatment) turned out to be 578 nM; in test [8] (setting [11]), 447 nM; in test [9] (setting [12]), 657 nM; in [10] (PSN1, 72 h, 72 hours treatment), 920 nM.

For `C#CCOc1cc([C@@H](CCC)NC(=O)[C@]2(C)CSC(C(C)(OCC)OCC)=N2)oc(=O)c1` [Compound 51], the GI50 was found to be 344 nM in test [7] (A549, 72 h, 72 hours treatment); 215 nM in test [8] (setting [11]); 323 nM in [9] (setting [12]); 366 nM in test [10] (PSN1, 72 h, 72 hours treatment).

As for `CCC[C@@H](NC(=O)[C@]1(C)CSC(C(C)(OCC)OCC)=N1)c1cc(OCC2CC2)cc(=O)o1` [Compound 52], the GI50 in test [7] (A549, 72 h, 72 hours treatment) was 1270 nM; in test [8] (setting [11]) it was 1210 nM; in [9] (setting [12]), 1290 nM; in test [10] (PSN1, 72 h, 72 hours treatment), 1770 nM.

As to `CCC[C@@H](NC(=O)[C@]1(C)CSC(/C(C)=N/OCCCCOP(=O)(OC(C)(C)C)OC(C)(C)C)=N1)c1cc(OCC2CC2)cc(=O)o1` [Compound 191], the GI50 is 496 nM in [7] (A549, 72 h, 72 hours treatment); 554 nM in test [8] (setting [11]); 612 nM in [9] (setting [12]); 875 nM in test [10] (PSN1, 72 h, 72 hours treatment).

Consider `C#CCOc1cc([C@@H](CCC)NC(=O)[C@]2(C)CSC(/C(C)=N\O)=N2)oc(=O)c1` [Compound 75a], for which the GI50 in [7] (A549, 72 h, 72 hours treatment) worked out at 2.12 nM; in test [8] (setting [11]), 1.18 nM; in [9] (setting [12]), 2.71 nM; in test [10] (PSN1, 72 h, 72 hours treatment), 2 nM.

For `CCC[C@@H](NC(=O)[C@]1(C)CSC(/C(C)=N/O[Si](c2ccccc2)(c2ccccc2)C(C)(C)C)=N1)c1cc(OCC2CC2)cc(=O)o1` [Compound 183], the GI50 in [7] (A549, 72 hours treatment) was determined as 5.76 nM; in [8] (HT-29, 72 hours treatment) it was 5.46 nM; in test [9] (MDA-MB-231, 72 hours treatment), 5 nM; in test [10] (PSN1, 72 hours treatment), 8.18 nM.

Consider `C=CCOc1cc([C@@H](CCC)NC(=O)[C@]2(C)CSC(C(C)=NOCCCCN3CCOCC3)=N2)oc(=O)c1` [Compound 161], for which the GI50 in [7] (A549, 72 h, 72 hours treatment) was 4.96 nM; in test [8] (setting [11]), 5.47 nM; in [9] (setting [12]), 6.49 nM; in [10] (PSN1, 72 h, 72 hours treatment), 5.13 nM.

In the case of `C=CCOc1cc([C@@H](CCC)NC(=O)[C@]2(C)CSC(/C(C)=N/OC(=O)CCCCCNC(=O)OC(C)(C)C)=N2)oc(=O)c1` [Compound 165], the GI50 in test [7] (A549, 72 h, 72 hours treatment) stood at 5.48 nM; in test [8] (setting [11]) it was 5.32 nM; in [9] (setting [12]), 7.41 nM; in test [10] (PSN1, 72 h, 72 hours treatment), 6.44 nM.

As for `CCC[C@@H](NC(=O)[C@]1(C)CSC(/C(C)=N/O)=N1)c1cc(OCCOCCOCCOCC)cc(=O)o1` [Compound 87], the GI50 turned out to be 5690 nM in test [7] (A549, 72 h, 72 hours treatment); 5500 nM in test [8] (setting [11]); 6820 nM in test [9] (setting [12]); 7010 nM in [10] (PSN1, 72 h, 72 hours treatment).

As to `CCC[C@@H](NC(=O)[C@@]1(C)CSC(/C(C)=N/O)=N1)c1cc(OCC2CC2)cc(=O)o1` [Compound 137], the GI50 came out at 126 nM in [7] (A549, 72 h, 72 hours treatment); 109 nM in test [8] (setting [11]); 149 nM in [9] (setting [12]); 145 nM in [10] (PSN1, 72 h, 72 hours treatment).

In the case of `CCC[C@@H](NC(=O)[C@]1(C)CSC(/C(C)=N/OCCCCO[Si](C)(C)C(C)(C)C)=N1)c1cc(OC)cc(=O)o1` [Compound 146], the GI50 in [7] (A549, 72 hours treatment) is 1940 nM; in test [8] (HT-29, 72 hours treatment) it was 1020 nM; in test [9] (MDA-MB-231, 72 hours treatment) it was 2820 nM; in test [10] (PSN1, 72 hours treatment), 2110 nM.

As to `CCCCOc1cc([C@@H](CCC)NC(=O)[C@]2(C)CSC(/C(C)=N/O)=N2)oc(=O)c1` [Compound 71], the GI50 in test [7] (A549, 72 h, 72 hours treatment) was 7.08 nM; in test [8] (setting [11]), 7.56 nM; in test [9] (setting [12]), 14.4 nM; in test [10] (PSN1, 72 h, 72 hours treatment), 10.4 nM.

For the molecule `CCC[C@@H](NC(=O)[C@]1(C)CSC(/C(C)=N/OCCCCO[Si](C)(C)C(C)(C)C)=N1)c1cc(OCC2CC2)cc(=O)o1` [Compound 148], the GI50 in test [7] (A549, 72 hours treatment) turned out to be 263 nM; in test [8] (HT-29, 72 hours treatment), 59.2 nM; in [9] (MDA-MB-231, 72 hours treatment), 247 nM; in [10] (PSN1, 72 hours treatment) it was 296 nM.

In the case of `C#CCOc1cc([C@@H](CCC)NC(=O)[C@]2(C)CSC(/C(C)=N/O)=N2)oc(=O)c1` [Compound 75], the GI50 is 1.01 nM in test [7] (A549, 72 h, 72 hours treatment); 0.962 nM in [8] (setting [11]); 1.38 nM in test [9] (setting [12]); 1.18 nM in test [10] (PSN1, 72 h, 72 hours treatment).

On to `CCCCCCCOc1cc([C@@H](CCC)NC(=O)[C@]2(C)CSC(C(C)(OCC)OCC)=N2)oc(=O)c1` [Compound 48], for which the GI50 in test [7] (A549, 72 h, 72 hours treatment) is 3430 nM; in test [8] (setting [11]), 2290 nM; in test [9] (setting [12]), 2290 nM; in test [10] (PSN1, 72 h, 72 hours treatment), 2100 nM.

Consider `CCCCCCCCCCCCCCCCCOc1cc([C@@H](CCC)NC(=O)[C@]2(C)CSC(C(C)=O)=N2)oc(=O)c1` [Compound 62], for which the GI50 was found to be 1610 nM in test [7] (A549, 72 h, 72 hours treatment); 1100 nM in test [8] (setting [11]); 1690 nM in test [9] (setting [12]); 1640 nM in test [10] (PSN1, 72 h, 72 hours treatment).

Regarding `C=CCOc1cc([C@@H](CCC)NC(=O)[C@@]2(C)CSC(C(C)(OCC)OCC)=N2)oc(=O)c1` [Compound 130], the GI50 stood at 214 nM in test [7] (A549, 72 h, 72 hours treatment); 206 nM in test [8] (setting [11]); 364 nM in [9] (setting [12]); 364 nM in [10] (PSN1, 72 h, 72 hours treatment).

Regarding `C=CCOc1cc([C@@H](CCC)NC(=O)[C@]2(C)CSC(/C(C)=N/OCCCCO)=N2)oc(=O)c1` [Compound 115], the GI50 was 11.1 nM in [7] (A549, 72 h, 72 hours treatment); 5.84 nM in test [8] (setting [11]); 11.9 nM in test [9] (setting [12]); 13.6 nM in test [10] (PSN1, 72 h, 72 hours treatment).
